Source: patent publication US4808584A, “Quinolinecarboxylic acid derivatives and antibacterial agent containing the same” (Kanebo, Ltd., priority 1987, dated 1989)
Values after ≈ are worked out from the molar mass of the structure shown. Counter-ions that a name gives are not always drawn. Like-named read-outs stand apart in the source and are kept apart here.

Experiments:
Test in all cases: Minimum inhibitory concentration (MIC)
Format in all cases: cell-based
[1] = tested on: Proteus mirabilis IFO 3849; details: IFO3849; Proteus mirabilis IFO 3849, Gram -
Experimental: (§1) The compounds of the present invention (A, C, E, F, G, H and I) and ofloxacin as control were dissolved in 0.1N aqueous potassium hydroxide to prepare a solution of 5000 μg/ml in concentration. The compounds of the present invention (B, D and J) were dissolved in sterilized distilled water to prepare a solution of 5000 μg/ml in concentration. Each solution was diluted with sterilized distilled water to prepare a standard solution with a concentration of each test compound: 1000 μg/ml. The test was carried out by a method approved by Japan Society of Chemotherapy [cf. Chemotherapy, 29, 76-79 (1981)(TOKYO)].

[2] = tested on: Staphylococcus aureus IID 803
Experimental: as §1

[3] = tested on: Escherichia coli NIHJ JC-2; details: NIHJJC2; Escherichia coli NIHJ JC-2, Gram -
Experimental: as §1

[4] = tested on: Pseudomonas aeruginosa NCTC 10490; details: for MIC: Pseudomonas aeruginosa, NCTC10490, Pseudomonas aeruginosa NCTC 10490, Gram -
Experimental: as §1

[5] = tested on: Salmonella typhimurium IID 971; details: Salmonella typhimurium IID 971, Gram -; for MIC: Salmonella enterica, read-out: Minimum inhibitory concentration (MIC)
Experimental: as §1

Escherichia coli KC-14 = details: KC14; Escherichia coli KC-14, Gram -
Experimental: as §1

Enterobacter cloacae 963 = details: Enterobacter cloacae 963, Gram -
Experimental: as §1

[6] = tested on: Serratia marcescens IAM 1184; details: Serratia marcescens, IAM1184, Serratia marcescens IAM 1184, Gram -
Experimental: as §1

[7] = tested on: Pseudomonas aeruginosa IFO 3445; details: Pseudomonas aeruginosa, IFO3445, Pseudomonas aeruginosa IFO 3445, Gram -
Experimental: as §1

[8] = tested on: Bacillus subtilis ATCC 6633
Experimental: as §1

[9] = tested on: Staphylococcus epidermidis IAM-1296; details: for MIC: Staphylococcus epidermidis, IAM1296, Staphylococcus epidermidis IAM-1296, Gram +
Experimental: as §1

[10] = tested on: Acinetobacter calcoaceticus AC 54; details: for MIC: Acinetobacter calcoaceticus, AC54, Acinetobacter calcoaceticus AC 54, Gram -
Experimental: as §1

[11] = tested on: Morganella morganii IFO 3848; details: IFO3848; Morganella morganii IFO 3848, Gram -
Experimental: as §1

[12] = tested on: Streptococcus faecalis IID 682; details: Enterococcus faecalis, IID682, Streptococcus faecalis IID 682, Gram +
Experimental: as §1

[13] = tested on: Enterobacter aerogenes ATCC 13048; details: for MIC: Klebsiella aerogenes, ATCC13048, Enterobacter aerogenes ATCC 13048, Gram -
Experimental: as §1

[14] = tested on: Staphylococcus aureus FDA 209P JC-1; details: FDA209P; Staphylococcus aureus FDA 209P JC-1, Gram +
Experimental: as §1

[15] = tested on: Citrobacter freundii NIHJ 10018-68; details: NIHJ10018; Citrobacter freundii NIHJ 10018-68, Gram -
Experimental: as §1

[16] = tested on: Micrococcus luteus ATCC 9341; details: ATCC9341; Micrococcus luteus ATCC 9341, Gram +
Experimental: as §1

[17] = tested on: Pseudomonas aeruginosa E-2; details: E2; Pseudomonas aeruginosa E-2, Gram -
Experimental: as §1

Shigella sonnei EW-33 = details: EW33; Shigella sonnei EW-33, Gram -
Experimental: as §1

Proteus vulgaris OX-19 = tested on: Proteus vulgaris OX-19
Experimental: as §1

[18] = tested on: Klebsiella pneumoniae PCI 602; details: for MIC: Klebsiella pneumoniae
Experimental: as §1

[19] = IID803, Staphylococcus aureus IID 803, Gram +, read-out: Minimum inhibitory concentration (MIC)
[20] = ATCC6633, Bacillus subtilis ATCC 6633, Gram +, read-out: Minimum inhibitory concentration (MIC)
[21] = OX19, Proteus vulgaris OX-19, Gram -, read-out: Minimum inhibitory concentration (MIC)
[22] = PCI602, Klebsiella pneumoniae PCI 602, Gram -, read-out: Minimum inhibitory concentration (MIC)

Compound	MIC [1] [µg/mL]	MIC [2, 19] [µg/mL]	MIC [3] [µg/mL]	MIC [4] [µg/mL]	MIC [5] [µg/mL]	MIC (Escherichia coli KC-14) [µg/mL]	MIC (Enterobacter cloacae 963) [µg/mL]	MIC [6] [µg/mL]	MIC [7] [µg/mL]	MIC [8, 20] [µg/mL]	MIC [9] [µg/mL]	MIC [10] [µg/mL]	MIC [11] [µg/mL]	MIC [12] [µg/mL]	MIC [13] [µg/mL]	MIC [14] [µg/mL]	MIC [15] [µg/mL]	MIC [16] [µg/mL]	MIC [17] [µg/mL]	MIC (Shigella sonnei EW-33) [µg/mL]	also measured
CN1CCN(c2c(F)cc3c(=O)c(C(=O)O)c4scc5n4c3c2OC5)CC1 [Compound (A), 9,1-Epoxymethano-7-fluoro-8-(4-methyl-1-piperazinyl)-5-oxo-5H-thiazolo[3,2-a]quinoline-4-carboxylic acid]	0.2 (≈ 0.514 µM)	0.2 (≈ 0.514 µM)	0.1 (≈ 0.257 µM)	0.78 (≈ 2 µM)	0.05 (≈ 0.128 µM)	0.1 (≈ 0.257 µM)	0.1 (≈ 0.257 µM)	0.2 (≈ 0.514 µM)	0.78 (≈ 2 µM)	0.1 (≈ 0.257 µM)	0.39	0.2 (≈ 0.514 µM)	0.1 (≈ 0.257 µM)	0.39	0.1 (≈ 0.257 µM)	0.2	0.2 (≈ 0.514 µM)	1.56	0.78 (≈ 2 µM)	0.05 (≈ 0.128 µM)	MIC (Proteus vulgaris OX-19; [21]): 0.05 µg/mL (≈ 0.128 µM)
O=C(O)c1c(=O)c2cc(F)c(N3CCNCC3)c3c2n2c(csc12)CO3 [Compound (C), 9,1-Epoxymethano-7-fluoro-8-(1-piperazinyl)-5-oxo-5H-thiazolo[3,2-a]quinoline-4-carboxylic acid]	0.2 (≈ 0.533 µM)	0.39 (≈ 1.04 µM)	0.1 (≈ 0.266 µM)	0.39 (≈ 1.04 µM)	0.05 (≈ 0.133 µM)	0.1 (≈ 0.266 µM)	0.2 (≈ 0.533 µM)	0.39 (≈ 1.04 µM)	0.78 (≈ 2.08 µM)	0.2 (≈ 0.533 µM)	0.78	0.78 (≈ 2.08 µM)	0.1 (≈ 0.266 µM)	0.78	0.1 (≈ 0.266 µM)	0.39	0.2 (≈ 0.533 µM)	3.13	0.78 (≈ 2.08 µM)	0.05 (≈ 0.133 µM)	MIC [18, 22]: 0.05 µg/mL (≈ 0.133 µM); MIC (Proteus vulgaris OX-19; [21]): 0.1 µg/mL (≈ 0.266 µM)
O=C(O)c1c(=O)c2cc(F)c(N3CCNCC3)c3c2n2c(csc12)CO3 [Compound (D), 9,1-Epoxymethano-7-fluoro-8-(1-piperazinyl)-5-oxo-5H-thiazolo[3,2-a]quinoline-4-carboxylic acid.hydrochloride.1/2hydrate]	–	–	–	–	–	–	–	–	–	–	–	–	–	–	–	–	–	–	–	–	Minimum inhibitory concentration (MIC) ([4]; Pseudomonas aeruginosa NCTC 10490, Gram -): 0.78 µg/mL; Minimum inhibitory concentration (MIC) [5]: 0.10 µg/mL; Minimum inhibitory concentration (MIC) ([9]; Staphylococcus epidermidis IAM-1296, Gram +): 1.56 µg/mL; Minimum inhibitory concentration (MIC) ([10]; Acinetobacter calcoaceticus AC 54, Gram -): 1.56 µg/mL; Minimum inhibitory concentration (MIC) ([13]; Enterobacter aerogenes ATCC 13048, Gram -): 0.20 µg/mL; Minimum inhibitory concentration (MIC) ([18]; Klebsiella pneumoniae PCI 602, Gram -): 0.025 µg/mL
CC1CN(c2c(F)cc3c(=O)c(C(=O)O)c4scc5n4c3c2OC5)CCN1 (stereo not drawn) [Compound (E), 9,1-Epoxymethano-7-fluoro-8-(3-methyl-1-piperazinyl)-5-oxo-5H-thiazolo[3,2-a]quinoline-4-carboxylic acid.1/4hydrate]	0.2	0.2	0.2	0.78	0.1	0.1	0.2	0.39	1.56	0.1	0.78	0.78	0.1	0.78	0.1	0.2	0.78	3.13	0.78	0.1	MIC [18, 22]: 0.025 µg/mL; MIC (Proteus vulgaris OX-19; Proteus vulgaris, OX19, read-out: Minimum inhibitory concentration (MIC)): 0.05 µg/mL
O=C(O)c1c(=O)c2cc(F)c(N3CCN(O)CC3)c3c2n2c(csc12)CO3 [Compound (F), 9,1-Epoxymethano-7-fluoro-8-(4-hydroxy-1-piperazinyl)-5-oxo-5H-thiazolo[3,2-a]quinoline-4-carboxylic acid.1/4hydrate]	0.2	0.39	0.2	0.78	0.05	0.1	0.2	0.78	1.56	–	1.56	1.56	0.1	1.56	0.1	0.39	0.2	6.25	1.56	0.05	MIC ([8]; Bacillus subtilis, ATCC6633, read-out: Minimum inhibitory concentration (MIC)): 0.1 µg/mL; MIC [18, 22]: 0.025 µg/mL; MIC (Proteus vulgaris OX-19; [21]): 0.05 µg/mL
O=C(O)c1c(=O)c2cc(F)c(N3CCCC3)c3c2n2c(csc12)CO3 [Compound (G), 9,1-Epoxymethano-7-fluoro-8-(1-pyrrolidinyl)-5-oxo-5H-thiazolo[3,2-a]quinoline-4-carboxylic acid]	0.39 (≈ 1.08 µM)	–	0.2 (≈ 0.555 µM)	0.78 (≈ 2.16 µM)	0.1 (≈ 0.277 µM)	0.2 (≈ 0.555 µM)	0.39 (≈ 1.08 µM)	1.56 (≈ 4.33 µM)	1.56 (≈ 4.33 µM)	0.025 (≈ 0.0694 µM)	0.05	0.2 (≈ 0.555 µM)	0.2 (≈ 0.555 µM)	0.2	0.1 (≈ 0.277 µM)	0.025	3.13 (≈ 8.69 µM)	3.13	1.56 (≈ 4.33 µM)	0.1 (≈ 0.277 µM)	MIC ([2]; Staphylococcus aureus, IID803, read-out: Minimum inhibitory concentration (MIC)): 0.05 µg/mL (≈ 0.139 µM); MIC [18, 22]: 0.1 µg/mL (≈ 0.277 µM); MIC (Proteus vulgaris OX-19; [21]): 0.1 µg/mL (≈ 0.277 µM)
O=C(O)c1c(=O)c2cc(F)c(N3CCC(O)C3)c3c2n2c(csc12)CO3 (stereo not drawn) [Compound (H), 9,1-Epoxymethano-7-fluoro-8-(3-hydroxy-1-pyrrolidinyl)-5-oxo-5H-thiazolo[3,2-a]quinoline-4-carboxylic acid]	0.1 (≈ 0.266 µM)	0.025 (≈ 0.0664 µM)	0.05 (≈ 0.133 µM)	0.39 (≈ 1.04 µM)	0.0125 (≈ 0.0332 µM)	0.05 (≈ 0.133 µM)	0.1 (≈ 0.266 µM)	0.39 (≈ 1.04 µM)	0.39 (≈ 1.04 µM)	0.006 (≈ 0.0159 µM)	0.2	0.1 (≈ 0.266 µM)	0.1 (≈ 0.266 µM)	0.2	0.1 (≈ 0.266 µM)	0.025	0.39 (≈ 1.04 µM)	0.78	0.39 (≈ 1.04 µM)	0.05 (≈ 0.133 µM)	MIC [18, 22]: 0.006 µg/mL (≈ 0.0159 µM); MIC (Proteus vulgaris OX-19; [21]): 0.0125 µg/mL (≈ 0.0332 µM)
NC1CCN(c2c(F)cc3c(=O)c(C(=O)O)c4scc5n4c3c2OC5)C1 (stereo not drawn) [Compound (I), 9,1-Epoxymethano-7-fluoro-8-(3-amino-1-pyrrolidinyl)-5-oxo-5H-thiazolo[3,2-a]quinoline-4-carboxylic acid]	0.39 (≈ 1.04 µM)	0.39 (≈ 1.04 µM)	0.2 (≈ 0.533 µM)	0.39 (≈ 1.04 µM)	0.1 (≈ 0.266 µM)	0.1 (≈ 0.266 µM)	0.2 (≈ 0.533 µM)	0.78 (≈ 2.08 µM)	0.78 (≈ 2.08 µM)	0.2 (≈ 0.533 µM)	0.78	0.78 (≈ 2.08 µM)	0.2 (≈ 0.533 µM)	0.78	0.1 (≈ 0.266 µM)	0.2	0.2 (≈ 0.533 µM)	1.56	0.78 (≈ 2.08 µM)	0.1 (≈ 0.266 µM)	MIC ([18]; PCI602, read-out: Minimum inhibitory concentration (MIC)): 0.05 µg/mL (≈ 0.133 µM); MIC (Proteus vulgaris OX-19; [21]): 0.2 µg/mL (≈ 0.533 µM)
